From patent publication US12240849B2, “Nitrogen-containing spiro derivative as RET inhibitor” (GUANGZHOU BAIYUNSHAN PHARMACEUTICAL HOLDINGS CO., LTD. …, priority 2019, dated 2025)
Like-named read-outs stand apart in the source and are kept apart here.

Key:
[1] = test system: Ba/F3 KIF5B-RET tumor cell xenograft; assay: Efficacy in engineered cell line Ba/F3 KIF5B-RET xenograft model; type: in vivo, NPSG mice; conditions: for TGI: TGI = 1-ΔT/ΔC; for Tumor Volume on Day 10 / Tumor Volume on Day 0: average ± standard error
Description: To verify efficacy of drugs to be tested alone on the engineered cell line Ba/F3 KIF5B-RET xenograft model of NPSG mice.
1) Ba/F3 KIF5B-RET cells were resuscitated and cultured in vitro to obtain 4×10^7 cells.
2) Sixty 6-8 week old female NPSG mice were adaptively fed for one week and weighed.
3) The Ba/F3 KIF5B-RET cells were subcutaneously inoculated on right scapula of mice according to the inoculation conditions obtained in the pre-test (see Table 7) to establish the Ba/F3 KIF5B-RET tumor cell xenograft model of NPSG mice.
(§1) 4) After inoculation, the volume and weight of tumors were measured once a week. When the average tumor volume reached 104 mm^3, mice were randomly grouped according to the volume and weight of tumors with 6 mice in each group. The administration was started immediately after the grouping. The start date of the administration was recorded as day 0.
(§2) 5) After administration was started, the body weight and tumor volume of the mice were measured respectively on the day 0, day 3, day 6, and day 10.
6) For the experiment of two groups, a T-Test analysis method was used. For a comparison of three or more groups, One-Way ANOVA was used for analysis. For comparing potential synergistic effects, Two-Way ANOVA was used for analysis. All data were analyzed by using SPSS 17.0. A p value less than 0.05 was considered to be a significant difference, and a p value less than 0.01 was considered to be a very significant difference.

[2] = Body weight of mice in Ba/F3 KIF5B-RET-V804L xenograft experiment; type: in vivo, NPSG mice; conditions: 10 mg/kg p.o. BID, Ba/F3 KIF5B-RET-V804L model, in g (unit assumed)
Description: (§3) 4) After inoculation, the volume and weight of tumors were measured once a week. When the average tumor volume reached 124.5 mm^3, mice with the tumor volume between 82.9 mm^3 and 145.4 mm^3 were selected and randomly grouped according to the volume and weight of tumors with 6 mice in each group. The administration was started immediately after the grouping. The start date of the administration was recorded as day 0.
(§4) 5) After the administration was started, the mice were continuously administrated for 9 days, and the body weight and tumor volume of the mice were measured on day 3, day 6, and day 9.

[3] = Pharmacokinetic evaluation in mice; type: in vivo, CD-1 mice (male); conditions: male, mouse, plasma, CD-1 mice; for bioavailability: read-out: Bioavailability F; for AUC: read-out: Integrated Concentration AUC; for clearance: read-out: Clearance Rate; for half-life: read-out: Half-life T1/2 (converted)
Description: Experiment objective: to test the pharmacokinetic of compound in mice
Experiment material: CD-1 mice (male)
Experiment operations: the pharmacokinetic characteristics of rodents after intravenous injection and oral administration of the compounds were obtained by using a standard scheme. In the experiment, candidate compounds were formulated into clear solutions, and mice were administrated by a single intravenous injection and oral administration. The solvent of the intravenous injection and oral administration was 10% PEG400 (polyethylene glycol 400)+90%(10% hydroxypropyl-β-cyclodextrin). The whole blood samples were collected within 24 hours. All the blood samples were added respectively into labeled plastic centrifuge tubes in which 0.5 M K2-EDTA anticoagulants were pre-added. The blood samples were collected, and centrifuged at 3,000 g for 10 min at 4° C. The supernatant plasma was collected by absorbing and quickly placed in dry ice to keep at −20° C. or lower. Blood concentrations were quantitatively analyzed by using an LC-MS/MS analysis method, and pharmacokinetic parameters, such as peak concentration, peak time, clearance rate, half-life, area under drug concentration-time curve, bioavailability, etc. were calculated.

[4] = test system: Ba/F3 KIF5B-RET-V804L tumor cell xenograft; assay: Efficacy in Ba/F3 KIF5B-RET-V804L tumor cell xenograft model; type: in vivo, NPSG mice
Description: 1) Ba/F3 KIF5B-RET-V804L cells were resuscitated and cultured in vitro to obtain 5×10^7 cells.
2) Forty-five 6-8 week old female mice were adaptively fed for 1 week and weighed.
3) Ba/F3 KIF5B-RET-V804L tumor cells were subcutaneously inoculated into the right scapula position of the mice so as to establish the engineered cell line Ba/F3 KIF5B3-RET-V804L tumor cell xenograft model. Inoculation conditions were as follows: (see Table 3)
as §3, §4
6) Data statistics were analyzed by one-way ANOVA. Variance homogeneity difference of data was firstly detected. If there was no difference in the variance homogeneity, an LSD method was used for analysis; and if there was a difference in the variance homogeneity, Dunnett's T3 was selected for data analysis. All data were analyzed by using SPSS 17.0. A p value less than 0.05 was considered a significant difference.

[5] = Body weight of mice in Ba/F3 KIF5B-RET xenograft experiment; type: in vivo, NPSG mice; conditions: Ba/F3 KIF5B-RET model, in g (unit assumed)
Description: as §1, §2

[6] = biological target: T1, human wild-type RET (Homo sapiens, UniProt P07949); assay: 33P isotope-labeled kinase activity test, wild-type RET; type: biochemical; conditions: 33P-ATP at Km concentration
T1 construct: purchased Reaction Biology Corp
Description: (§5) ^33P isotope-labeled kinase activity test (Reaction Biology Corp) was used to determine IC50 value so as to evaluate an inhibitory ability of a test compound on human wild-type, V804M and V804L mutant RET.
(§6) Buffer solution condition: 20 mM 4-(2-hydroxyethyl)piperazine-1-ethanesulfonic acid (Hepes) (pH 7.5), 10 mM MgCl2, 1 mM 1,2-bis[2-[bis(carboxymethyl)amino]ethoxy]ethane (EGTA), 0.02% polyoxyethylene lauryl ether (Brij35), 0.02 mg/mL bovine serum albumin (BSA), 0.1 mM of Na3VO4, 2 mM dithiothreitol (DTT) and 1% DMSO.
(§7) Compound treatment: the compound to be tested was dissolved in 100% DMSO, and then the obtained solution was continuously diluted with DMSO by using Integra Viaflo Assist until a specific concentration was obtained.
(§8) Test procedures: a substrate was dissolved in the newly prepared buffer solution, a kinase to be tested was added therein, and the obtained solution was gently and evenly mixed. DMSO solution in which a compound to be test was dissolved was added in the above evenly mixed reaction solution by using an acoustic technology (Echo 550), and then incubated for 20 minutes at room temperature. […] Kinase activity data was expressed by comparing the kinase activity of the compound to be tested with the kinase activity of a blank group (containing only DMSO). The IC50 value was obtained by curve fitting with Prism4 software (GraphPad).

[7] = biological target: T2, V804M mutant RET (Homo sapiens, UniProt P07949, V804M); assay: 33P isotope-labeled kinase activity test, V804M mutant RET; type: biochemical; conditions: 33P-ATP at Km concentration
T2 construct: purchased Reaction Biology Corp
Description: as §5, §6, §7, §8

[8] = biological target: T3, V804L mutant RET (Homo sapiens, UniProt P07949, V804L); assay: 33P isotope-labeled kinase activity test, V804L mutant RET; type: biochemical; conditions: 33P-ATP at Km concentration
T3 construct: purchased Reaction Biology Corp
Description: as §5, §6, §7, §8

[9] = 10 mg/kg, oral administration 10 mpk
[10] = iv, 2 mg/kg, injection administration 2 mpk

T1 sequence (P07949 29-1114): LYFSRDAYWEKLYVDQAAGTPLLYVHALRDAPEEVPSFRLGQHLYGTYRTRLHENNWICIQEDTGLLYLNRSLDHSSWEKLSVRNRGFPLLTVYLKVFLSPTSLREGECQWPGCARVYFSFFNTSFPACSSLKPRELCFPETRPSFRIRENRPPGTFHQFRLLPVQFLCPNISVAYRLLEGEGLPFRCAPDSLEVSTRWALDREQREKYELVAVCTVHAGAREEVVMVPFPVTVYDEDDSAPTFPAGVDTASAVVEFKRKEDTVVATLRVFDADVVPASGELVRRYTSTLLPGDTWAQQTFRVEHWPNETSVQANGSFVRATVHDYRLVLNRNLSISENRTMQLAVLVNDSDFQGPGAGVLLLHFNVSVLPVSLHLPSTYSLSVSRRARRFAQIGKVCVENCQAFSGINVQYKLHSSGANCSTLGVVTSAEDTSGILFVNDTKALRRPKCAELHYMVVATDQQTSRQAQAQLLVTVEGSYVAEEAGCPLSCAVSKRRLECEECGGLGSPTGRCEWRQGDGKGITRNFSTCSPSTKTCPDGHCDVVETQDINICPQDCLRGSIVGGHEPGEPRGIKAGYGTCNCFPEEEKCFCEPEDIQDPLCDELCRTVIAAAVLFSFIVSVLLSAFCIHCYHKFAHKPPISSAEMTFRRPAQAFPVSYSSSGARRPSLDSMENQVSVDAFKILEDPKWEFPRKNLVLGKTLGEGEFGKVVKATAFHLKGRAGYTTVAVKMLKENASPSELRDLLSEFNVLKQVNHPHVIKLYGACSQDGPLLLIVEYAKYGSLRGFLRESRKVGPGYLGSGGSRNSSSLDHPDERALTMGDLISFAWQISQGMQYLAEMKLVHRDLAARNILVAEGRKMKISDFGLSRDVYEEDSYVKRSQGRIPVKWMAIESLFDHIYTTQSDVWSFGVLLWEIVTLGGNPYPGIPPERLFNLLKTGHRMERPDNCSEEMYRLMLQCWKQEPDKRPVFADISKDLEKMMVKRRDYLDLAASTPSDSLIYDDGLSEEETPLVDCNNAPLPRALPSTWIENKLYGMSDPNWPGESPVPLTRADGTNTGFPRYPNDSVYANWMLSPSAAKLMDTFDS
T3 sequence (P07949 29-1114 V804L): as the sequence (P07949 29-1114) above, with V776L counted along it
T2 sequence (P07949 29-1114 V804M): as the sequence (P07949 29-1114) above, with V776M counted along it

| Compound | ΔVAC ([1]; 10 mg/kg p.o. BID Day 0-Day 10) | Body weight ([2]; day 0) | Body weight ([2]; day 3) | Body weight ([2]; day 6) | Body weight ([2]; day 9) | bioavailability [3, 9] | AUC [3, 9] | clearance [3, 10] | half-life [3, 10] | AUC [3, 10] | ΔVAC ([4]; 10 mg/kg p.o. BID Day 0-Day 9) | Body weight ([5]; day 0, 10 mg/kg p.o. BID) | Body weight ([5]; day 3, 10 mg/kg p.o. BID) | Body weight ([5]; day 6, 10 mg/kg p.o. BID) | Body weight ([5]; day 10, 10 mg/kg p.o. BID) | IC50 [6] | also measured |
| --- | --- | --- | --- | --- | --- | --- | --- | --- | --- | --- | --- | --- | --- | --- | --- | --- | --- |
| Cc1cc(Nc2cc(C)nc(C3CCC4(CC3)OCCN(C(C)c3ccc(-n5cc(F)cn5)nc3)C4=O)n2)[nH]n1 (single isomer, unassigned) [Compound 014] | 1% | 19.5 ± 0.53 | 20.3 ± 0.72 | 20.5 ± 0.72 | 20.3 ± 0.84 | 53.7% | 49.6 µM·h | 1.65 mL/min/kg | 152 min | 16.4 µM·h | −6% | 18 ± 0.57 | 18.5 ± 0.47 | 18.5 ± 0.75 | 18.6 ± 0.62 |  |  |
| Cc1cc(Nc2cc(C)nc(N3CCC4(CC3)CCN(C(C)c3ccc(-n5cc(F)cn5)nc3)C4)n2)[nH]n1 (stereo not drawn) [Compound 003-h] |  |  |  |  |  |  |  |  |  |  |  |  |  |  |  | 73.9 nM |  |
| Cc1cc(Nc2cc(C)[nH]n2)nc(N2CCC3(CC2)OCCN(C(C)c2ccc(-n4cc(F)cn4)nc2)C3=O)n1 (stereo not drawn) [Compound 018] | 10% | 18.6 ± 0.49 | 18.8 ± 0.48 | 18.6 ± 0.87 | 19 ± 0.64 | 59.7% | 27.7 µM·h | 6.55 mL/min/kg | 154 min | 9.3 µM·h | −7% | 17.7 ± 0.47 | 18.2 ± 0.51 | 18.5 ± 0.57 | 17.7 ± 0.86 | 1.29 nM | TGI ([1]; 10 mg/kg p.o. BID Day 0-Day 10): 90%; Tumor Volume on Day 10 ([1]; 10 mg/kg p.o. BID Day 0-Day 10): 205.1 ± 29.87 mm^3; Tumor Volume on Day 0 ([1]; 10 mg/kg p.o. BID): 106.3 ± 7.14 mm^3; ΔVAC ([1]; 20 mg/kg p.o. BID Day 0-Day 10): −7%; TGI ([1]; 20 mg/kg p.o. BID Day 0-Day 10): 107%; Tumor Volume on Day 10 ([1]; 20 mg/kg p.o. BID Day 0-Day 10): 32.8 ± 6.81 mm^3; Tumor Volume on Day 0 ([1]; 20 mg/kg p.o. BID): 102.2 ± 7.09 mm^3; IC50 [7]: 1.97 nM; TGI ([4]; 10 mg/kg p.o. BID Day 0-Day 9, TGI = 1-ΔT/ΔC): 107%; Tumor Volume on Day 9 ([4]; 10 mg/kg p.o. BID Day 0-Day 9, average ± standard error): 75.5 ± 7.11 mm^3; Tumor Volume on Day 0 ([4]; 10 mg/kg p.o. BID, average ± standard error): 125 ± 3.96 mm^3; Body weight ([5]; day 0, 20 mg/kg p.o. BID): 17.6 ± 0.58; Body weight ([5]; day 3, 20 mg/kg p.o. BID): 18.1 ± 0.56; Body weight ([5]; day 6, 20 mg/kg p.o. BID): 18.3 ± 0.53; Body weight ([5]; day 10, 20 mg/kg p.o. BID): 18.5 ± 0.63; IC50 [8]: 1.23 nM |
